In the NIST ThermoML archive (doi:10.1016/j.fluid.2008.02.016):
Numbers after ± are expanded uncertainties.

Assays:
[1] = Crystal; DTA
[2] = Molar enthalpy of transition or fusion; details: Crystal; DSC

Normal melting temperature [1]	Molar enthalpy of transition or fusion [2]	Compound
78.60 ± 0.5 °C	5.07 ± 0.143 kcal/mol	Cc1ccc(C(C)(C)c2ccc(C)cc2)cc1 [2,2-bis(p-tolyl)propane]
84.10 ± 0.5 °C	5.33 ± 0.167 kcal/mol	Cc1ccc(C(c2ccc(C)cc2)(C(F)(F)F)C(F)(F)F)cc1 [2,2-bis(p-tolyl)hexafluoropropane]
